In US10399932B2, “Inhibitors of indoleamine-2,3-dioxygenase for the treatment of cancer” (BRISTOL-MYERS SQUIBB COMPANY, priority 2015, dated 2019):
pIC50: −log10 of the molar value.

Assays:
[1] = target: T1, human IDO1 (Homo sapiens, UniProt P14902); test: Assessment of human IDO-1 inhibitory activity in Hela cells (Interferon-gamma activated, Ehrlich reagent, absorbance at 490 nm); assay type: cell-based; parameters: endogenous in cells; host or cells: HeLa cells stimulated with interferon-gamma; details: 18 hours
T1 sequence (P14902 whole entry): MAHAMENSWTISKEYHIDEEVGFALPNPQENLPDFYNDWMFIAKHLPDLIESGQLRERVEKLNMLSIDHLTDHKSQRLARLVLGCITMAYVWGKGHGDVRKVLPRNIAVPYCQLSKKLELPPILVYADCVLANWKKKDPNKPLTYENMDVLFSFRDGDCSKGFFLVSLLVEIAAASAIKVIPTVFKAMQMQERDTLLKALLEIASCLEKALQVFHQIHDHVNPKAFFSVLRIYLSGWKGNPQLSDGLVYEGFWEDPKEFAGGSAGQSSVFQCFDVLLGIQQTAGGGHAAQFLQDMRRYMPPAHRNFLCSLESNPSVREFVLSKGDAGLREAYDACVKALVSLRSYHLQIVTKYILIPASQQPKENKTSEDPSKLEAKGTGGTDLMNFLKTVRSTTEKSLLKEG
Method: Exemplary compounds were tested for inhibition of IDO activity.
HeLa cells were seeded at 20,000 cells per 30 µL per well with RPMI/phenol red free media containing 10% FBS in a 384-well tissue culture plate (black with clear bottoms). 50 nL of compound was added to cells and incubated at 37° C. for one hour. 20 μL of the recombinant human Interferon-gamma (R&D System, Cat. #285-IF, at final concentration of 10 ng/ml) or recombinant murine Interferon-gamma (PEPROTECH® Inc., Cat. #315-05, final concentration of 5 ng/ml) was added to activate IDO signaling. The cells were incubated for 18 hours in 37° C. incubator with 5% CO2.
Compound treatment was stopped by adding 5 μl trichloroacetic acid to a final concentration of 3%. Subsequently, the cell plate was further incubated at 50° C. for 30 minute. An equal volume supernatant (20 μL) and 2% (w/v) Ehrlich reagent (4-dimethylaminobenzaldehyde) in glacial acetic acid were mixed in a new clear bottom 384-well plate. This plate was incubated at room temperature for 30 minutes. Absorbance at 490 nm was measured on Envision plate reader.
Compound IC50 values were calculated using counts from unstimulated (no INF-gamma treatment) wells as 100% inhibition. INF-gamma treatment without compound treatment as 0% inhibition.

[2] = target: T1, human IDO1; test: Assessment of human IDO-1 inhibitory activity in HEK cells (human IDO1/HEK293 cells, Ehrlich reagent, absorbance at 490 nm); assay type: cell-based; parameters: expressed in transfected cells; details: In Vitro Potency in the HEK Human IDO-1 Cellular Assay
Method in brief: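 Stable human IDO1-expressing HEK293 cells treated with compound for 20 h at 37 °C in phenol red-free RPMI/10% FBS. Stopped with 0.2% TCA (final) and heated 30 min at 50 °C; supernatant mixed with Ehrlich reagent, absorbance read at 490 nm. IC50 normalised to DMSO (0%) and 500 nM reference standard (100% inhibition).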

Row | pIC50 [1] | pIC50 [2] | Compound
1 | > 8.30 |  | CCN(c1ccc([C@H](COC)CC(=O)O)cc1Nc1cccc(OC(F)(F)C(F)F)c1)C1CCOCC1 [Example 398, (R)-3-(4-(ethyl(tetrahydro-2H-pyran-4-yl)amino)-3-((3-(1,1,2,2-tetrafluoroethoxy)phenyl)amino)phenyl)-4-methoxybutanoic acid]
2 | > 7.30 |  | CCc1ccc(Nc2cc(C(COC)CC(=O)O)cc(F)c2N(CC(C)C)CC(C)C)cc1 (single isomer, unassigned) [Example 926, 3-(4-(diisobutylamino)-3-((4-ethylphenyl)amino)-5-fluorophenyl)-4-methoxybutanoic acid.]
3 | > 7.30 |  | CCC(CC(=O)O)c1ccc(N2CCC(C)CC2)c(Nc2ccc(C#N)cc2)c1 (single isomer, unassigned) [Example 41 Enantiomer 2, 3-(3-((4-Cyanophenyl)amino)-4-(4-methylpiperidin-1-yl)phenyl)pentanoic acid]
4 | > 7.30 |  | CCN(c1ccc([C@@H](COC)CC(=O)O)cc1Nc1ccc(C#N)c(OC)c1)C1CCOCC1 [Example 380]
5 | > 8.30 |  | COCC(CC(=O)OC)c1ccc(N(CC(F)F)C2CCOCC2)c(Nc2ccc(Cl)cc2)c1 (stereo not drawn) [Example 319, methyl 3-(3-((4-chloro-phenyl)amino)-4-((2,2-difluoroethyl) (tetrahydro-2H-pyran-4-yl)amino)phenyl)-4-methoxy-butanoate]
6 | < 7.30 |  | CCN(c1ccc(C(CC(=O)O)C2CC2)cc1NC(=O)Nc1ccc(C#N)cc1)C1CCOCC1 (single isomer, unassigned) [Example 255 Enantiomer 2, 3-(3-(3-(4-Cyanophenyl)ureido)-4-(ethyl(tetrahydro-2H-pyran-4-yl)amino)phenyl)-3-cyclopropylpropanoic acid]
7 | < 7.30 |  | (S)-3-(4-((1,1-dioxidotetrahydro-2H-thiopyran-4-yl)(ethyl)amino)-3-((2-methoxypyrimidin-5-yl)amino)phenyl)-4-isopropoxybutanoic acid [Example 327]
8 | > 8.30 |  | CCC(CC(=O)O)c1ccc(N(CC)C2CCS(=O)(=O)CC2)c(Nc2ccc(Cl)cc2)c1 (single isomer, unassigned) [Example 334 Enantiomer 2, 3-(3-((4-Chlorophenyl)amino)-4-((1,1-dioxidotetrahydro-2H-thiopyran-4-yl)(ethyl)amino)phenyl)pentanoic acid]
9 | < 7.30 |  | CCOc1ncc(Nc2cc([C@@H](COC)CC(=O)O)ccc2N2CCOCC2CC)cn1 (single isomer, unassigned) [Example 1299]
10 | < 7.30 |  | CCOc1ncc(Nc2cc(C(CC(=O)O)C3CC3)ccc2N2C[C@@H](C)O[C@@H](C)C2)cn1 (stereo partly drawn) [Example 250, 3-cyclopropyl-3-(4-((2R,6S)-2,6-dimethylmorpholino)-3-((2-ethoxypyrimidin-5-yl)amino)phenyl) propanoic acid]
11 | > 7.30 |  | CCOc1ncc(Nc2cc(C(CC)CC(=O)O)ccc2N(CCOC)C2CCOCC2)cn1 (single isomer, unassigned) [Example 1263, 3-(3-((2-ethoxypyrimidin-5-yl)amino)-4-((2-methoxyethyl)(tetrahydro-2H-pyran-4-yl)amino)phenyl)pentanoic acid]
12 | < 7.30 |  | COCC(CC(=O)OC)c1ccc(N(CC(F)F)C2CCOCC2)c(Nc2ccc(Cl)cc2)c1 (stereo not drawn) [Example 320, methyl 3-(3-((4-chloro-phenyl)amino)-4-((2,2-difluoroethyl) (tetrahydro-2H-pyran-4-yl)amino)phenyl)-4-methoxy-butanoate]
13 | > 8.30 |  | CCC(CC(=O)O)c1ccc(N(C)C2CCOCC2)c(Nc2ccc(Cl)cc2)c1 (single isomer, unassigned) [Example 937, 3-(3-((4-chlorophenyl)amino)-4-(methyl(tetrahydro-2H-pyran-4-yl)amino)phenyl) pentanoic acid]
14 | < 7.30 |  | COCC(CC(=O)O)c1ccc(N2CCOC(C)(C)C2)c(Nc2ccc(C#N)cc2)c1 (single isomer, unassigned) [Example 1317]
15 | < 7.30 |  | COCC(CC(=O)O)c1ccc(N2CCOC[C@H]2C(C)C)c(NC(=O)Nc2ccc(C#N)cc2)c1 (single isomer, unassigned) [Example 915]
16 | > 7.30 |  | C[C@@H]1CN(c2ccc(C(CC(=O)O)C3CC3)cc2Nc2ccc(Cl)cc2)C[C@H](C)O1 (single isomer, unassigned) [Example 248]
17 | < 7.30 |  | Cc1ccc(NC(=O)Nc2cc(C(C)CC(=O)O)ccc2N2C[C@@H](C)O[C@@H](C)C2)cc1 (single isomer, unassigned) [Example 753]

Row | pIC50 [1] | pIC50 [2] | Compound
18 | < 7.30 |  | CCC1COCCN1c1ccc([C@H](COC)CC(=O)O)cc1Nc1cnc(OC)nc1 (single isomer, unassigned) [Example 1306]
19 | > 7.30 |  | CCOc1ncc(Nc2cc(C(CC(=O)O)C3CC3)ccc2N(CC)C2CCOCC2)cn1 (single isomer, unassigned) [Example 39, 3-cyclopropyl-3-(3-((2-ethoxypyrimidin-5-yl)amino)-4-(ethyl(tetrahydro-2H-pyran-4-yl)amino)phenyl)propanoic acid]
20 | < 7.30 |  | CCOc1ncc(Nc2cc(C(CC)CC(=O)O)ccc2N2CCOCC2)cn1 (single isomer, unassigned) [Example 7 Enantiomer 1, 3-(3-((2-Ethoxypyrimidin-5-yl)amino)-4-morpholinophenyl)pentanoic acid]
21 |  | > 7.30 | CCC(CC(=O)O)c1ccc(N(CC2CC2)C2CCOCC2)c(Nc2ccc3nc(C)sc3c2)c1 (single isomer, unassigned) [Example 707, 3-(4-((Cyclopropylmethyl)(tetrahydro-2H-pyran-4-yl)amino)-3-((2-methylbenzo[d]thiazol-6-yl)amino)phenyl)pentanoic acid]
22 |  | > 8.30 | COCC(CC(=O)O)c1ccc(N(CC(C)C)C2CCCCC2)c(NC(=O)Nc2ccc(OC)cc2F)c1 (single isomer, unassigned) [Example 1239, 3-(4-(Cyclohexyl(isobutyl)amino)-3-(3-(2-fluoro-4-methoxyphenyl)ureido)phenyl)-4-methoxybutanoic acid]
23 |  | < 7.30 | CCC(CC(=O)O)c1cc(F)c(N(CC(C)C)CC(C)C)c(Nc2ccc3nc(C)sc3c2)c1 (single isomer, unassigned) [Example 111, 3-(4-(diisobutylamino)-3-fluoro-5-((2-methylbenzo [d]thiazol-6-yl)amino)phenyl)pentanoic acid]
24 |  | < 7.30 | CCC(CC(=O)O)c1ccc(N2CCC[C@H]2C(C)(C)O)c(Nc2ccnc(N3CCOCC3)n2)c1 (single isomer, unassigned) [Example 832]
25 |  | > 8.30 | COCC(CC(=O)O)c1ccc(N(CC(C)C)C2CCCCC2)c(NC(=O)Nc2ccccc2F)c1 (single isomer, unassigned) [1125 E1]
26 |  | > 8.30 | COCC(CC(=O)O)c1cc(F)c(N(CC(C)C)CC(C)C)c(NC(=O)Nc2ccc(OC)cc2F)c1 (single isomer, unassigned) [Example 1189, 3-(4-(Diisobutylamino)-3-fluoro-5-(3-(2-fluoro-4-methoxyphenyl)ureido)phenyl)-4-methoxybutanoic acid]
27 |  | > 8.30 | CCC(CC(=O)O)c1ccc(N(CC(C)C)C(C)C)c(Nc2ccc(Cl)cc2)c1 (single isomer, unassigned) [Example 728, 3-(3-((4-Chlorophenyl)amino)-4-(isobutyl(isopropyl)amino)phenyl)pentanoic acid]
28 |  | > 7.30 | CCC(CC(=O)O)c1ccc(N(CC(C)C)C2CCCCC2)c(Nc2ccc(Cl)c(OCC(F)(F)F)c2)c1 (single isomer, unassigned) [Example 651, 3-(3-((4-chloro-3-(2,2,2-trifluoroethoxy)phenyl)amino)-4-(cyclohexyl(isobutyl)amino)phenyl)pentanoic acid]
29 |  | > 8.30 | CCC(CC(=O)O)c1cc(F)c(N(CC(C)C)CC(C)C)c(NC(=O)Nc2ccc(C)c(F)c2)c1 (single isomer, unassigned) [Example 982-2]
30 |  | > 8.30 | CCC(CC(=O)O)c1ccc(N(CC2CC2)C2CCOCC2)c(NC(=O)Nc2ccc(Cl)cc2F)c1 (single isomer, unassigned) [Example 699, 3-(3-(3-(4-Chloro-2-fluorophenyl)ureido)-4-((cyclopropylmethyl)(tetrahydro-2H-pyran-4-yl)amino)phenyl)pentanoic acid]
31 |  | > 8.30 | CCC(CC(=O)O)c1cc(NC(=O)Nc2ccc3c(c2)OCO3)c(N(CC(C)C)CC(C)C)cc1F (single isomer, unassigned) [Example 1136, 3-(5-(3-(Benzo[d][1,3]dioxol-5-yl)ureido)-4-(diisobutylamino)-2-fluorophenyl) pentanoic acid]
32 |  | > 7.30 | CCN(c1ccc([C@@H](COC)CC(=O)O)cc1Nc1ccc2c(c1)OC(F)(F)O2)C1CCOCC1 (single isomer, unassigned) [Example 378]
33 |  | > 8.30 | CCC(CC(=O)O)c1ccc(N(CC2CC2)C(C)C)c(Nc2ccc(Cl)cc2)c1 (single isomer, unassigned) [Example 717, 3-(3-((4-chlorophenyl)amino)-4-((cyclopropylmethyl)(isopropyl)amino)phenyl)pentanoic acid]
